Experimental data published in patent publication US7354711B2, “Methods for inhibiting immunostimulatory DNA associated responses” (University of Iowa Research Foundation, priority 1997, dated 2008).

Key:
human mononuclear cells = assay: ODN 1760-induced [3H] thymidine incorporation in human mononuclear cells; type: cell-based; details: unfractionated human peripheral blood cells, four days
Description: [^3H] thymidine incorporation (18 hour pulse) was then measured. […] Thymidine incorporation for untreated samples was less than 0.05%. Samples from three donors were averaged, and error bars indicate 1 standard deviation.

WEHI 231 cells [1] = assay: Inhibition of CpG-ODN 1760 protection against α-sIgM-induced inhibition of [3H] thymidine uptake; type: cell-based, mouse
WEHI 231 cells [2] = details: 0.1 μM quinacrine
Description: Unless otherwise noted, cell culture conditions were as follows. WEHI 231 cells (ATTC #CRL 1702) were grown in log phase in a medium of RPMI 1640 supplemented with 10% fetal bovine serum (heat inactivated at 65° C. for one hour), 0.3 grams/Liter of L-glutamine, 50 milligrams/Liter gentamycin, and 0.05 mM 2-mercaptoethanol in a 37° C. humid atmosphere with 5% CO2. WEHI 231 cells were diluted with 0.4% trypan blue in phosphate-buffered saline (PBS) and live cells were counted in a hemocytometer chamber. Cells were resuspended in medium at 2×10^5/milliliter in 24-well tissue culture plates (Costar, Cambridge Mass.). Appropriate additions were made, and the cells were incubated and counted daily. WEHI 231 cells were diluted with fresh medium if the concentration exceeded 7×10^5/milliliter.
Referring to the experiments summarized in FIG. 2a, WEHI 231 cells (2×10^5 per milliliter) were incubated with or without 6 μgrams/milliliter ODN 1760, 10 μgrams/milliliter α-sIgM, or 0.1 μM quinacrine as indicated. Live cells were counted daily. The cells were diluted in medium if their concentration exceeded 7×10^5 per milliliter.

WEHI 231 cells [3] = assay: Protection by ODN against thapsigargin-induced DNA fragmentation; type: cell-based, mouse; details: 0.1 μM quinacrine, 10 nM thapsigargin, 24 hours
Description: The DNA fragmentation assay was carried out generally as follows. WEHI 231 cells were incubated with 0.5 μCi/milliliter [^3H] thymidine for 3 hours, centrifuged, resuspended in 2 milliliters of fresh medium at 2×10^5/milliliter, and incubated in a 24-well plate with additions as indicated. After incubation for 16-18 hours, 1 milliliter aliquots of the cells were centrifuged, washed with 200 μliters PBS. This suspension was drawn into a pipette tip containing 25 μliters of 2% SDS, and the mixture was immediately ejected into a well of a 0.8% agarose TBE gel containing 0.5 μliter/milliliter ethidium bromide. The gel was electrophoresed for 1 hour at 65 volts, destained in water, and photographed under ultraviolet light. The lanes of the gel were cut into three approximately equal portions. The first portion included the gel well and the first 2 millimeters of the running lane. The second and third pieces were the remainder of the lane. The gel portions were melted in glass scintillation vials and mixed with a 20 milliliter of scintillation cocktail and counted in a scintillation counter. The amount of fragmented DNA (DNA in the second and third gel pieces) was expressed as a percentage of the total counts recovered in the lane. […]

WEHI 231 cells [4] = assay: Protection by ODN 1760 against C2-ceramide-induced inhibition of [3H] thymidine uptake; type: cell-based, mouse; details: 0.1 μM quinacrine, 6 μg/mL ODN
Description: The assay of [^3H] Thymidine incorporation was carried out as follows. WEHI 231 cells (200 μL at 2×10^5/milliliter, in duplicate or triplicate) were incubated in a 96-well plate (Costar, Cambridge Mass.). Additions were made as indicated. After incubating for 16 hours, 0.5 μCi [methyl-^3H] thymidine (2 Ci/millimole, DuPont NEN, Boston Mass.) was added to each well, and the cells were incubated for another 4 hours. Cellular DNA was then captured onto glass fiber filters (Whatman 934AH) using a cell harvester (Brandel, Gaithersberg Md.). The filters were dried, placed into plastic scintillation vials with 10 milliliters of scintillation cocktail (EconoSafe, Research Products International, Mount Prospect Ill.), and counted in a liquid scintillation counter (Beckman LS-3133 T). The ^3H recovered on the filter was expressed as a fraction of the ^3H added. In a typical experiment, WEHI 231 cells incorporate about 15% of added ^3H.
Referring to the experiments summarized in FIG. 6, WEHI 231 cells were incubated with C2-ceramide as indicated with or without 6 μgrams/milliliter ODN and 0.1 μM quinacrine and thymidine incorporation was estimated. Referring to the experiments summarized in FIG. 7, WEHI 231 cells were prelabeled with 0.5 μCi/milliliter [^3H] thymidine for 3 hours, and resuspended in fresh medium containing 10 nM thapsigargin. […]

WEHI 231 cells [5] = assay: CpG-ODN-induced IL-6 synthesis (ELISA); type: cell-based, mouse; details: 10 nM
Description: The assay of IL6 was generally carried out as follows. […] After 24 hours, the IL-6 content of the supernatant was assayed by enzyme-linked immunoassay using two monoclonal antibodies in a sandwich technique as described by the manufacturer, using standards supplied (PharMingen, San Diego Calif.).

Compound: CCN(CC)CCCC(C)Nc1c2ccc(Cl)cc2nc2ccc(OC)cc12 (stereo not drawn) [quinacrine]
- Effect on ODN 1760-induced thymidine incorporation (FIG. 8) (human mononuclear cells): inhibited
- Block of CpG-ODN action on subsequent addition (FIG. 4) (WEHI 231 cells [1]; 0.1 μM quinacrine added 8 hours after the CpG-ODN): blocked the action of CpG-ODN
- Block of the action of phosphodiester ODN (FIG. 4) (WEHI 231 cells [1]; 0.1 μM quinacrine, PD ODN 30 μM at 0 and 8 hours): effective in blocking
- vs. Chloroquine, fold (WEHI 231 cells [1]; Table 3, 9-aminoacridines): 7.76 fold
- Activity,-log10 (concentration (M) for half maximal inhibition of CpG-ODN effect on [3H] thymidine uptake in the presence of α-sIgM) (WEHI 231 cells [1]; Table 3, 9-aminoacridines, WEHI 231 cells): 7.85
- Inhibition of the CpG-ODN effect (FIG. 1) (WEHI 231 cells [1]; at nanomolar concentrations, 10 μg/mL α-sIgM, 6 μg/mL ODN 1760): completely inhibited
- Inhibition at increasing concentrations of ODN 1760 (non-competitive kinetics, FIG. 3) (WEHI 231 cells [1]; range of concentrations of ODN 1760 and quinacrine, 10 μg/mL α-sIgM): increasing the concentration of ODN 1760 did not overcome the inhibitory effect
- Influence of compound alone on cell growth and on cell death induced by α-sIgM (WEHI 231 cells [2]): influenced neither cell growth nor cell death
- Reversal of ODN 1760 protection, cell count over a period of three days (FIG. 2a) (WEHI 231 cells [2]; 6 μg/mL ODN 1760, 10 μg/mL α-sIgM): reversed this protection
- Block of ODN 1760 protection against thapsigargin-induced DNA fragmentation (FIG. 7) (WEHI 231 cells [3]): blocked the protective effect
- Block of ODN 1760 protection against C2-ceramide (FIG. 6) (WEHI 231 cells [4]): blocked this protective effect
- Reversal of ODN 1760 effect on IL-6 elaboration (WEHI 231 cells [5]): completely reversed
